Measured values: publication PMC10281804, “The structural basis of the talin–KANK1 interaction that coordinates the actin and microtubule cytoskeletons at focal adhesions” (Open Biology, 2023)

Key:
mCherry–KANK1 = assay: MTS colocalization of truncated or mutated talin constructs with KANK1; format: cell-based, human; conditions: MTS colocalization assay, cBAK-tagged talin constructs
From the text: To examine the effect of these KANK1 mutations on talin interactions in cells, we next used a mitochondrial targeting system (MTS) which we previously used to screen for defined protein–protein interactions. In this assay, one protein is fused to a small peptide sequence from the pro-apoptotic protein BAK (cBAK) which leads to its insertion into the outer membrane of mitochondria. Proteins that interact with the cBAK-tagged protein will get recruited to mitochondria, and this recruitment can be verified either by visualizing colocalization using fluorescence microscopy (figure 4a) or by purification of mitochondria followed by detection of co-precipitates using biochemistry (figure 4b,c). […] To confirm that the interaction was meditated by the R7 domain, we performed the colocalization assays with truncated talin constructs. […]
(§1) Images of fixed samples in PBS were acquired at room temperature using an Olympus IX83 inverted microscope equipped with a 60×/1.42 PlanApo N oil objective and a QImaging Retiga R6 CCD camera, controlled by Metamorph software. Samples were illuminated using LEDs (UV/Cyan/Green-Yellow/Red, Lumencor) for fluorescence excitation; a Sedat filter set (DAPI/FITC/TRITC/Cy5, Chroma, 89000) was used.

[1] = test system: KANK1 localization to focal adhesions of NIH3T3 fibroblasts; assay: KANK1 localization in vin880-expressing cells treated with ROCK inhibitor; format: cell-based, mouse
Description: NIH3T3 mouse fibroblasts and HEK293T human epithelial cells were obtained from the American Type Culture Collection (ATCC). The vinculin null and WT mouse embryonic fibroblasts (MEFs) originate from the Eileen Adamson laboratory. All cells were maintained in Dulbecco's Modified Eagle Medium (DMEM; Sigma) supplemented with 10% fetal bovine serum (FBS, Gibco), 1% L-glutamine (Sigma) and 1% non-essential amino acids (Sigma). Talin1&2 null cells were cultured in DMEM F-12 (Gibco) supplemented with 10% FBS, 1% L-glutamine, 1% non-essential amino acids and […] HEPES (Sigma). All cells were cultured at 37̊C supplied with 5% CO2 and 95% humidity. Transient transfections were performed using Lipofectamine LTX with Plus Reagent (Invitrogen) to NIH3T3 cells, Lipofectamine 2000 (Invitrogen) to talin null cells, and jetPRIME reagent (Polyplus) to MEFs and HEK293T cells, as per the manufacturer's instructions.
For fixed cell imaging, cells were cultured in glass-bottom dishes (IBL) coated with bovine fibronectin (Sigma) at a final concentration of 10 µg ml^−1. […]
as §1
FIJI-ImageJ [33] software was used to process all images. Cell-matrix adhesion size was quantified as described previously, by subtracting background signal using a rolling ball algorithm, followed by thresholding to select adhesion structures and the Analyze Particles function to quantify adhesions. […] Pearson's correlation coefficient of fluorescence signals (40 × 40 µm^2 square adhesion area) was measured by subtracting the background signal, followed by automatic thresholding and colocalization analysis using the Bioimaging and Optics Platform (BIOP) version JACoP plugin [34]. […]

## GFP–talin1G1404L–cBAK: GFP–talin1–cBAK with the R7 G1404L mutation
mCherry–KANK1
  colocalization of talin construct with KANK1: prevented colocalization

## C[C@@H](N)[C@H]1CC[C@H](C(=O)Nc2ccncc2)CC1 [Y-27632]
[1]; NIH3T3 cells expressing vin880 treated with Y-27632
  KANK1 localization (in words): KANK1 colocalized with paxillin in FAs throughout the whole FA structure
[1]; NIH3T3 with GFP–vin880 and mCherry–KANK1, Y-27632 50 µM, 60 min, 20 images (40 × 40 µm^2) per group, ± s.d., water control r = 0.59 ± 0.05, p < 0.001 (Welch's t-test)
  Pearson's mean correlation coefficient of KANK1/paxillin overlap: 0.82 ± 0.04
[1]; NIH3T3 with GFP–vin880 and mCherry–KANK1, Y-27632 50 µM, 60 min, FAs over 0.3 µm^2, n = 17, ± s.d., water control 17.90 ± 3.27% (n = 28), p < 0.001 (Welch's t-test)
  Percentage of belt-positive FAs: 0.02 ± 0.10%
